These results are taken from patent US20090325913A1, “Treatment of pain using satraplatin” (priority 2006, published 2009).

Data set [1] has as its system prostate cancer cell lines PC-3, DU 145 and LNCaP. As to conditions: cited from earlier work.
Data set [2] relates to patients with metastatic prostatic carcinoma. As to conditions: single agent; cited from earlier work.
Data set [3] concerns CYP enzymes (cytochrome P450 system). The data set can be described thus: Inhibition of CYP enzymes. It is filed as in vitro ADME. From the text:
This may result in increased toxicity of certain drugs (see Appendix 5). Patients will be monitored closely for drug interactions or adverse reactions to concomitant medications. Investigators are cautioned to adjust concomitant medication dosages appropriately.

Data set [4] relates to mismatch repair-proficient and mismatch repair-deficient cell lines. As to conditions: cited from earlier work.
In data set [5] the test system is human tumor cell lines with different sensitivities to cisplatin. As to conditions: at equimolar basis; cited from earlier work.
In data set [6] the test system is human lung cancer cells. As to conditions: cited from earlier work.

As to `N.NC1CCCCC1.[Cl-].[Cl-].[Pt+2]` [JM118, reference compound], the “effect of treatment on prostate cancer cells” value in data set [1] was “tumor cell kill”.
As for `N.N.[Cl][Pt][Cl]` [cisplatin], the efficacy entry in data set [2] is “not effective”.
`CC(=O)[O][Pt]([NH2])([Cl])([Cl])([NH]C1CCCCC1)[O]C(C)=O` [satraplatin, bis(acetato)ammine dichloro(cyclohexylamine)platinum (IV)]: the “inhibition of CYP enzymes” value in data set [3] is reported as “strong inhibitor”. In data set [1], the “effect of treatment on prostate cancer cells” value is recorded as “tumor cell kill”; the “sensitivity of androgen-insensitive PC-3 and DU 145 vs androgen-sensitive LNCaP” value is given as “more sensitive”. In data set [4], the “difference in sensitivity between mismatch repair-proficient and -deficient cell lines” value is “no difference in sensitivity”. In addition, the “levels of platinum-DNA adducts compared to cisplatin” value in data set [5] is “lower levels of platinum-DNA adducts”. The “effect on radiation response” value in data set [6] is “can potentiate the effects of radiation”.
